Experiment [1] concerns HCT116 cells. Briefly: Cytotoxicity in vitro, HCT116 (CellTiter 96 Aqueous One Solution). It counts as cell-based, human. The settings on record: Homo sapiens, HCT-116; Table 1; 72 h incubation; read-out: HCT116. The source says: The compounds of the present invention are small molecules of formula (I), characterised by the presence of a metal chelating moiety, the benzohydroxamate, an α-aminoacidic N-acylated central core and an α,β-unsaturation at the acyl-moiety. This particular structural feature seems responsible for the high inhibitory activity on cancer stem cell lines and on HCT116 cells (ATCC CCL-247), a human colorectal carcinoma cell line widely used in cancer biology both in vitro and in vivo (Botchkina Cancer Genom Proteom 6, 19-30, 2009; Yeung PNAS 107, 3722-3727, 2010).
(§1) The cytotoxicity activity was evaluated as follows: • Pre-B leukemia cell line 697 was seeded at 2×10^5 c/well; • Colon carcinoma cell lines HCT116, HT29 and COLO2015 were seeded at 4×10^3, 4×10^3 and 10×10^3 c/well respectively; • Primary human kidney cells were seeded at 1.5×10^3 and 6.5×10^3 in two separate experiments; • Human PBMC were seeded at 5×10^5 c/well; • Colon cancer stem cells (CSC) were seeded at 3×10^3;
(§2) Testing compounds were added after 24 h and incubated for 72 h (48 h for 697 cell line). The concentrations of molecules ranged from 10000 nM to 1.5 nM (10000 to 1 nM for 697 cell line). The cytotoxic activity of compounds was evaluated using the CellTiter 96® Aqueous One Solution Cell Proliferation Assay (Promega) which measures the functionality of mitochondria according to manufacturer's instructions. For Colon cancer stem cells viability was determined with CellTiter-Glo Luminescent cell viability assay (Promega).
(§3) The activity of compounds at any dose is calculated as percentage of inhibition versus vehicle-treated control (=0). The IC50s are extrapolated from the inhibition dose/response curve using GraphPad Prism program.

In experiment [2] the test system is Colon cancer stem cells (CSC) CSC1. Briefly: Cytotoxicity in vitro, colon cancer stem cells CSC1 (CellTiter-Glo). It counts as cell-based. Particulars: Table 1; 72 h incubation; read-out: CSC1. The protocol:
as §1, §2, §3

Experiment [3] concerns Pre-B leukemia cell line 697. Briefly: Primary cytotoxicity screening, 697 cell line (CellTiter 96). The settings on record: Table 1; 48 h incubation; read-out: CyTox697. It counts as cell-based. The protocol: as §1, §2, §3

Experimental findings from patent US10590101B2, “Benzo-N-hydroxy amide compounds having antitumor activity” (ITALFARMACO SPA, priority 2016, dated 2020) are described below.

For the molecule `COc1ccc(C[C@H](NC(=O)Cc2ccc3c(c2)OCO3)C(=O)Nc2ccc(C(=O)NO)cc2)cc1`, the values for the IC50 in experiment [1], in experiment [2] and in experiment [3] were 554 nM, 280 nM and 168 nM, respectively.

As to `O=C(Cc1ccc2c(c1)OCO2)N[C@@H](Cc1ccccc1)C(=O)Nc1ccc(C(=O)NO)cc1`, the figures for the IC50 in experiment [1], in experiment [2] and in experiment [3] were 1070 nM, 208 nM and 127 nM, respectively.

`O=C(NO)c1ccc(NC(=O)[C@H](Cc2ccccc2)NC(=O)c2ccccc2)cc1`: the IC50 in experiment [1] worked out at 184 nM; in experiment [2] it was 96 nM; in experiment [3] it was 105 nM.

In the case of `COc1ccc(C[C@H](NC(=O)Cc2ccccc2)C(=O)Nc2ccc(C(=O)NO)cc2)cc1`, the IC50 in experiment [1] came out at 316 nM; in experiment [2], 160 nM; in experiment [3] it was 72 nM.

In the case of `O=C(/C=C/c1ccc2c(c1)OCO2)N[C@@H](Cc1ccccc1)C(=O)Nc1ccc(C(=O)NO)cc1` [drawing 55], the IC50 worked out at 11 nM in experiment [1], 37 nM in experiment [2] and 85 nM in experiment [3].

Regarding `O=C(Cc1ccccc1)N[C@@H](Cc1ccccc1)C(=O)Nc1ccc(C(=O)NO)cc1`, the results for the IC50 in experiment [1], in experiment [2] and in experiment [3] were 237 nM, 192 nM and 90 nM, respectively.

Consider `O=C(/C=C/c1ccccc1)N[C@@H](Cc1ccccc1)C(=O)Nc1ccc(C(=O)NO)cc1` [drawing 59], for which the IC50 amounted to 10 nM in experiment [1], 73 nM in experiment [2] and 45 nM in experiment [3].

Consider `COc1ccc(C[C@H](NC(=O)c2ccccc2)C(=O)Nc2ccc(C(=O)NO)cc2)cc1`, for which the IC50 in experiment [1] came to 76 nM; in experiment [2] it was 48 nM; in experiment [3] it was 54 nM.

Regarding `COc1ccc(C[C@H](NC(=O)/C=C/c2ccccc2)C(=O)Nc2ccc(C(=O)NO)cc2)cc1` [drawing 50], the IC50 came to 13 nM in experiment [1], 40 nM in experiment [2] and 22 nM in experiment [3].

With `COc1ccc(C[C@H](NC(=O)CCc2ccc3c(c2)OCO3)C(=O)Nc2ccc(C(=O)NO)cc2)cc1`, the IC50 in experiment [1] was 702 nM; in experiment [2], 400 nM; in experiment [3], 496 nM.

In the case of `O=C(COc1ccccc1)N[C@@H](Cc1ccccc1)C(=O)Nc1ccc(C(=O)NO)cc1`, the IC50 in experiment [1] stood at 466 nM; in experiment [2], 424 nM; in experiment [3], 59 nM.

As to `COc1ccc(C[C@H](NC(=O)c2ccc3c(c2)OCO3)C(=O)Nc2ccc(C(=O)NO)cc2)cc1`, the IC50 in experiment [1] worked out at 24 nM; in experiment [2], 24 nM; in experiment [3] it was 21 nM.

On to `O=C(NO)c1ccc(NC(=O)[C@H](Cc2ccccc2)NC(=O)c2ccc3c(c2)OCO3)cc1`, for which the figures for the IC50 in experiment [1] and in experiment [3] were 79 nM and 18 nM, respectively.

As to `O=C(CCc1ccc2c(c1)OCO2)N[C@@H](Cc1ccccc1)C(=O)Nc1ccc(C(=O)NO)cc1`, the figures for the IC50 in experiment [1], in experiment [2] and in experiment [3] were 900 nM, 336 nM and 203 nM, respectively.

Consider `COc1ccc(C[C@H](NC(=O)CCc2ccccc2)C(=O)Nc2ccc(C(=O)NO)cc2)cc1`, for which the IC50 in experiment [1] was determined as 431 nM; in experiment [2], 136 nM; in experiment [3] it was 53 nM.

For `COc1ccc(C[C@H](NC(=O)COc2ccccc2)C(=O)Nc2ccc(C(=O)NO)cc2)cc1`, the values for the IC50 in experiment [1] and in experiment [3] were 194 nM and 44 nM, respectively.

For `COc1ccc(C[C@H](NC(=O)/C=C/c2ccc3c(c2)OCO3)C(=O)Nc2ccc(C(=O)NO)cc2)cc1` [drawing 46], the IC50 in experiment [1] is 18 nM; in experiment [2], 192 nM; in experiment [3] it was 3 nM.

For `O=C(CCc1ccccc1)N[C@@H](Cc1ccccc1)C(=O)Nc1ccc(C(=O)NO)cc1`, the IC50 worked out at 806 nM in experiment [1], 332 nM in experiment [2] and 770 nM in experiment [3].
